In the NIST ThermoML archive (doi:10.1016/j.jct.2014.04.022):
Where “and” joins values, the source holds several entries; their conditions need not be identical. Equal entries are not always repeated.

Legend:
[1] = molar heat capacity at constant pressure; conditions: 101.33 kPa
[2] = Molar enthalpy of transition or fusion; conditions: Crystal; DSC

C=C(C)[C@H]1CC=C(C)CC1 [(R)-1-methyl-4-(1-methylethenyl)cyclohexene]
Liquid, Closed cell (Static) method
Conditions | vapor or sublimation pressure
238.2 K | 0.001012 kPa and 0.001013 kPa
243.2 K | 0.001755 kPa and 0.001756 kPa
248.15 K | 0.002958 kPa and 0.002959 kPa and 0.00296 kPa
253.15 K | 0.00489 kPa and 0.004891 kPa and 0.004889 kPa
258.15 K | 0.0079 kPa and 0.007901 kPa
263.15 K | 0.01251 kPa and 0.01252 kPa
268.15 K | 0.01942 kPa
273.15 K | 0.02957 kPa
273.65 K | 0.0308 kPa and 0.03082 kPa
278.15 K | 0.04422 kPa
283.15 K | 0.06502 kPa and 0.06504 kPa and 0.06505 kPa
288.15 K | 0.09414 kPa and 0.09416 kPa
293.15 K | 0.1343 kPa
298.15 K | 0.1888 kPa and 0.1889 kPa
303.15 K | 0.262 kPa
308.15 K | 0.3589 kPa

C=C(C)[C@@H]1CC=C(C)CC1 [(S)-1-methyl-4-(1-methylethenyl)cyclohexene]
Liquid, Closed cell (Static) method
Conditions | vapor or sublimation pressure
273.65 K | 0.03073 kPa and 0.03074 kPa and 0.03075 kPa
278.15 K | 0.0441 kPa and 0.04411 kPa
283.15 K | 0.06487 kPa and 0.06488 kPa and 0.0649 kPa
288.15 K | 0.09392 kPa and 0.09395 kPa
293.15 K | 0.1339 kPa
298.15 K | 0.1883 kPa
303.15 K | 0.2609 kPa and 0.261 kPa
308.15 K | 0.3575 kPa and 0.3576 kPa

[1], Liquid, Large sample (1 g) DSC
Conditions | molar heat capacity at constant pressure [J/K/mol]
260.1 K | 240.3
265 K | 242.5
270 K | 244.8
275 K | 247.1
280 K | 249.2
285 K | 251.3
290 K | 253.4
295 K | 255.8
300 K | 257.8
305 K | 260.2
310 K | 262.5

CC12CCC(CC1)C(C)(C)O2 [1,3,3-trimethyl-2-oxabicyclo[2.2.2]octane]
Conditions | Molar enthalpy of transition or fusion [kJ/mol]
[2] | 13.8

Conditions | vapor or sublimation pressure
238.2 K, Crystal, Closed cell (Static) method | 0.00051 kPa and 0.000512 kPa
243.2 K, Crystal, Closed cell (Static) method | 0.001022 kPa and 0.001023 kPa
248.15 K, Crystal, Closed cell (Static) method | 0.00197 kPa and 0.001971 kPa and 0.001972 kPa
253.15 K, Crystal, Closed cell (Static) method | 0.003705 kPa and 0.003709 kPa and 0.003703 kPa
253.15 K, Metastable liquid, Closed cell (Static) method | 0.006217 kPa and 0.006221 kPa and 0.006222 kPa
258.15 K, Crystal, Closed cell (Static) method | 0.006771 kPa and 0.006776 kPa and 0.006782 kPa
258.15 K, Metastable liquid, Closed cell (Static) method | 0.01 kPa and 0.01001 kPa
263.15 K, Crystal, Closed cell (Static) method | 0.01211 kPa
263.15 K, Metastable liquid, Closed cell (Static) method | 0.01574 kPa and 0.01575 kPa and 0.01576 kPa
268.15 K, Crystal, Closed cell (Static) method | 0.02109 kPa and 0.0211 kPa
268.15 K, Metastable liquid, Closed cell (Static) method | 0.02431 kPa [middle of 4 runs]
273.15 K, Crystal, Closed cell (Static) method | 0.03596 kPa and 0.03597 kPa
273.65 K, Metastable liquid, Closed cell (Static) method | 0.03833 kPa and 0.03835 kPa and 0.03836 kPa
278.15 K, Closed cell (Static) method, Liquid | 0.05478 kPa and 0.0548 kPa
283.15 K, Closed cell (Static) method, Liquid | 0.0801 kPa and 0.08012 kPa
288.15 K, Closed cell (Static) method, Liquid | 0.1151 kPa and 0.1152 kPa
293.15 K, Closed cell (Static) method, Liquid | 0.1637 kPa
298.15 K, Closed cell (Static) method, Liquid | 0.2295 kPa and 0.2296 kPa
303.15 K, Closed cell (Static) method, Liquid | 0.3169 kPa and 0.317 kPa

Conditions | Normal melting temperature [°C]
Crystal, DTA | 1.0

[1]
Conditions | molar heat capacity at constant pressure [J/K/mol]
273.4 K, Metastable liquid, Large sample (1 g) DSC | 257.8
278.5 K, Large sample (1 g) DSC, Liquid | 260.2
283.6 K, Large sample (1 g) DSC, Liquid | 262.3
288.7 K, Large sample (1 g) DSC, Liquid | 264.6
293.8 K, Large sample (1 g) DSC, Liquid | 267.3
298.9 K, Large sample (1 g) DSC, Liquid | 270.7
304 K, Large sample (1 g) DSC, Liquid | 273.3
309.1 K, Large sample (1 g) DSC, Liquid | 276.1
314.2 K, Large sample (1 g) DSC, Liquid | 279.3
319.4 K, Large sample (1 g) DSC, Liquid | 281.4
324.5 K, Large sample (1 g) DSC, Liquid | 284.6
329.6 K, Large sample (1 g) DSC, Liquid | 288
334.7 K, Large sample (1 g) DSC, Liquid | 290.9
339.8 K, Large sample (1 g) DSC, Liquid | 294.2
344.9 K, Large sample (1 g) DSC, Liquid | 297.3
350 K, Large sample (1 g) DSC, Liquid | 301.2
355.1 K, Large sample (1 g) DSC, Liquid | 304.6

C[C@H]1CC[C@H]2C[C@@H]1C2(C)C [(-)-trans-pinane]
Liquid, Closed cell (Static) method
Conditions | vapor or sublimation pressure
238.15 K | 0.002871 kPa and 0.002872 kPa
243.15 K | 0.004792 kPa and 0.004794 kPa
248.15 K | 0.007832 kPa and 0.007836 kPa and 0.007837 kPa
253.15 K | 0.0125 kPa
258.15 K | 0.01954 kPa
263.15 K | 0.02999 kPa and 0.03 kPa
268.15 K | 0.04518 kPa and 0.0452 kPa
273.15 K | 0.06684 kPa and 0.06685 kPa and 0.06686 kPa
273.65 K | 0.06947 kPa
278.15 K | 0.09731 kPa and 0.09732 kPa
283.15 K | 0.1394 kPa
288.15 K | 0.1968 kPa
293.15 K | 0.2741 kPa
298.15 K | 0.3766 kPa and 0.3767 kPa
303.15 K | 0.5114 kPa
308.15 K | 0.6862 kPa and 0.6863 kPa

[1], Liquid, Large sample (1 g) DSC
Conditions | molar heat capacity at constant pressure [J/K/mol]
258.1 K | 227.6
263.2 K | 230.3
268.3 K | 233.4
273.4 K | 236.3
278.5 K | 239.3
283.6 K | 242.3
288.7 K | 245.3
293.8 K | 248.3
298.9 K | 251.3
304 K | 254.3
309.1 K | 257.4

CC1=CC[C@@H]2[C@H](C1)C2(C)C [(+)-3-carene]
Conditions | molar heat capacity at constant pressure [J/K/mol] | vapor or sublimation pressure
238.2 K, Liquid, Closed cell (Static) method | – | 0.00159 kPa and 0.001592 kPa and 0.001594 kPa
243.2 K, Liquid, Closed cell (Static) method | – | 0.002721 kPa and 0.002723 kPa
248.15 K, Liquid, Closed cell (Static) method | – | 0.004526 kPa and 0.004529 kPa
253.15 K, Liquid, Closed cell (Static) method | – | 0.007382 kPa and 0.007383 kPa and 0.007377 kPa
258.15 K, Liquid, Closed cell (Static) method | – | 0.01179 kPa and 0.0118 kPa
263.15 K, Liquid, Closed cell (Static) method | – | 0.01845 kPa and 0.01846 kPa
268.15 K, Liquid, Closed cell (Static) method | – | 0.02832 kPa and 0.02833 kPa
273.15 K, Liquid, Closed cell (Static) method | – | 0.04266 kPa and 0.04267 kPa
273.65 K, Liquid, Closed cell (Static) method | – | 0.0444 kPa and 0.04442 kPa and 0.04443 kPa
278.15 K, Liquid, Closed cell (Static) method | – | 0.06318 kPa and 0.06319 kPa
283.15 K, Liquid, Closed cell (Static) method | – | 0.09204 kPa and 0.09205 kPa
288.15 K, Liquid, Closed cell (Static) method | – | 0.1321 kPa
293.15 K, Liquid, Closed cell (Static) method | – | 0.1868 kPa
298.15 K, Liquid, Closed cell (Static) method | – | 0.2604 kPa and 0.2605 kPa
303.15 K, Liquid, Closed cell (Static) method | – | 0.3585 kPa
308.15 K, Liquid, Closed cell (Static) method | – | 0.4873 kPa
[1], 258.1 K, Liquid | 235.6 | –
[1], 263.2 K, Liquid | 237.8 | –
[1], 268.3 K, Liquid | 240.2 | –
[1], 273.4 K, Liquid | 242.4 | –
[1], 278.5 K, Liquid | 244.9 | –
[1], 283.6 K, Liquid | 247.2 | –
[1], 288.7 K, Liquid | 249.6 | –
[1], 293.8 K, Liquid | 251.9 | –
[1], 298.9 K, Liquid | 254.3 | –
[1], 304 K, Liquid | 256.6 | –
[1], 309.1 K, Liquid | 259 | –
[1], 314.2 K, Liquid | 261.4 | –
[1], 319.4 K, Liquid | 263.7 | –
[1], 324.5 K, Liquid | 266.3 | –
[1], 329.6 K, Liquid | 268.9 | –
[1], 334.7 K, Liquid | 271.5 | –
[1], 339.8 K, Liquid | 274 | –
[1], 344.9 K, Liquid | 276.6 | –
[1], 350 K, Liquid | 279.3 | –
[1], 355.1 K, Liquid | 281.8 | –

Liquid
Conditions | vapor or sublimation pressure
273.15 K | 0.04241 kPa and 0.04243 kPa and 0.04244 kPa
278.15 K | 0.06282 kPa and 0.06283 kPa
283.15 K | 0.09152 kPa and 0.09153 kPa and 0.09154 kPa
288.15 K | 0.1313 kPa
293.15 K | 0.1855 kPa
298.15 K | 0.2584 kPa and 0.2585 kPa
303.15 K | 0.3553 kPa
308.15 K | 0.4825 kPa

[1], Liquid, Large sample (1 g) DSC
Conditions | molar heat capacity at constant pressure [J/K/mol]
260.1 K | 236.9
265 K | 239.2
270 K | 241.6
275 K | 244.1
280 K | 246.3
285 K | 248.4
290 K | 250.6
295 K | 252.6
300 K | 254.8
305 K | 257.2
310 K | 259.6
